Source: US11161876B2, “Anti-inflammatory nanofibers” (Northwestern University, priority 2015, dated 2021)
“Also recorded” adds a separate entry of the source. * marks the point of attachment. C16 alkyl = CCCCCCCCCCCCCCCC*

What was measured:
Settings in all cases: 10 days post-augmentation; compared between groups
[1] = system: Rat Bladder Augmentation Model; assay: Blood vessel quantification in areas of bladder tissue regeneration; format: in vivo
Method: (§1) Athymic female rats (weighing ˜200 g and 8-10 weeks old; National Cancer Institute Animal Production Program) underwent bladder augmentation (ref. 15; herein incorporated by reference in its entirety). Athymic rats were chosen for this study to solely examine the innate immune response to inflammation without influence of the adaptive immune response. In order to induce anesthesia, animals were given intraperitoneal injections of 60 mg/kg ketamine and 5 mg/kg xylazine. A second injection consisting of Buprenex (1 mg/kg) was administered subcutaneously to alleviate any pain/discomfort during and following surgical procedures. An approximate 1.5 cm midline vertical skin incision was created to expose the abdominal fascia and muscles. This was immediately followed by the separation of the wall leading to the identification of the bladder. An approximate 70% supratrigonal cystectomy was performed from anterior to posterior creating a clamshell. Immediately prior to bladder augmentation procedures, samples of the pro-inflammatory biological scaffold, small intestinal submucosa (SIS (0.5×0.5 cm); Cook Biotech.) (refs. 12,13,16; herein incorporated by reference in their entireties) were thoroughly dip-coated separately in one of the previously described AIF-PAs following gelation procedures. The sections of SIS were dip-coated for approximately 20 seconds and allowed to adhere to the SIS for an additional 30 seconds. Dip-coating procedures were performed at room temperature in air. The cystectomized bladder defect was then augmented with: 1) SIS (non-AIF-PA coated SIS; n=8 animals over both time-points); 2) AIF-PA1 coated SIS (denoted as SIS/AIF-PA1; n=11 animals over both time-points); 3) AIF-PA2 coated SIS (denoted as SIS/AIF-PA2; n=8 animals over both time-points); 4) AIF-PA3 coated SIS (denoted as SIS/AIF-PA3; n=3); 5) AIF-PA4 coated SIS (denoted as SIS/AIF-PA4; n=3 animals); 6) AIF-PA5 coated SIS (denoted as SIS/AIF-PA5; n=3 animals); and 7) AIFC-PA6 coated SIS (denoted as SIS/AIFC-PA6; n=9 animals over both time-points). The bladder was finally covered with omentum after being closed in a watertight manner utilizing 7-0 polyglactin suture. The abdominal wall was then closed in a single layer with 5-0 ethibond running suture and the skin re-approximated with 9 mm autoclips. Each group was sacrificed at 10 day and 5 week time-points.
Trichrome sample images were opened with Adobe Photoshop CS3 and were initially characterized utilizing a Nikon Eclipse 50i Microscope in addition to Spot Advanced Imaging Software. Vessel numbers were quantified utilizing the pen tool based upon n=10 images per graft in regenerated areas. Individual vessels were selected manually and subsequently quantified using the image histogram tool to acquire pixel density for each vessel. Data is represented as mean number of vessels/mm^2 (means±SE).

[2] = system: Rat Bladder Augmentation Model; assay: Bladder tissue collagen quantification (Masson's Trichrome); format: in vivo
Method: as §1
Explanted bladder specimens encompassing the entire thickness of the bladder were isolated immediately following euthanasia and processed (ref. 15; herein incorporated by reference in its entirety). Specimens were fixed in a 10% buffered formalin phosphate (Fisher Scientific, Inc.) solution followed by a series of graded ethanol exchanges then embedded in paraffin (Fisher Scientific). Embedded tissues were sectioned onto glass slides at a thickness of 10 μm using a RM2125 RT Microtome (Leica) onto glass slides and subjected to staining with Masson's Trichrome (Sigma-Aldrich Corp.) reagent. The paraffin was removed from tissue containing slides using a hot plate at 62° C. for 6 minutes and was followed by treatment with xylenes, graded ethanol washes and DI water. Slides were placed in Bouin's solution (Sigma-Aldrich Corp.) for approximately 15 min then rinsed under running tap water. The samples were then stained 5 minutes with Hematoxylin and rinsed with running water and subsequently stained with Scarlet-Acid Fuchsin (Sigma-Aldrich Corp.). Slides were rinsed again with DI water and placed into a mixture of PTA/PMA, followed by Aniline Blue solution and a 1% acetic acid wash. Finally, slides were placed in 95-100% ethanol and rinsed in xylene. Following air drying, a coverslip was placed over the specimen sample and secured with Permaslip (Alban Scientific Inc).
Bladder tissue specimens were evaluated for collagen content (refs. 13,15,17; herein incorporated by reference in their entireties). […]

MPO+ neutrophils = assay: Immunofluorescence quantification of MPO+ neutrophils in regenerated bladder tissue; format: in vivo, rat
Method: as §1
(§2) Tissue sections comprised of SIS alone, SIS/AIF-PA1, SIS/AIF-PA2, and SIS/AIF-PA6 augmentations were subjected to immunofluorescence staining by initially undergoing antigen retrieval which consisted of 15 min of boiling in citrate buffer (0.01M citrate solution, pH 6.0 with 0.05% Tween-20) followed by cooling at room temperature for approximately 20 minutes. The antibody staining process consisted of a blocking step for 15 min in bovine serum albumin (BSA, 5 mg/ml) followed by a 40 minutes incubation at room temperature with the primary antibody. After washing with DPBS, slides were incubated for 30 min with a secondary antibody and eventually rinsed with DPBS and air dried. Slides were mounted with Vectashield (Vector Laboratories). Primary antibodies were directed against epitopes for the inflammatory markers CD68 (macrophage) (refs. 18,19; herein incorporated by reference in their entireties) MPO (neutrophil) (ref. 20; herein incorporated by reference in its entirety) or the inflammation-related proteins IL1β, TNFα, IL-10, IL-13, CD206 (M2 macrophage) (refs. 21-25; herein incorporated by reference in their entireties) and CD86 (M1 macrophage) (ref. 26; herein incorporated by reference in its entirety). Antibodies directed against the ECM in regenerating bladder tissue (including COL4A3 and fibronectin) were also utilized. Alexa Red 555 or FITC conjugated secondary antibodies (Molecular Probes) were utilized for visualization (ref. 15; herein incorporated by reference in its entirety). […]

CD68+ macrophages = assay: Immunofluorescence quantification of CD68+ macrophages in regenerated bladder tissue; format: in vivo, rat
Method: as §1, §2

C16-VVVAAAEEEDPVKG (SEQ ID NO:5) ({C16 alkyl}-VVVAAAEEEDPVKG-NH2) [SIS/AIF-PA5, anti-inflammatory peptide amphiphile, tested dip-coated on small intestinal submucosa (SIS) scaffold]
blood vessel formation, in words [1]: least level of blood vessel formation; also recorded: not significantly different from those of control groups | collagen levels, in words [2]: not significantly different from those of control groups

C16-VVVAAAEEEKVLDGQDP (SEQ ID NO:4) ({C16 alkyl}-VVVAAAEEEKVLDGQDP-NH2) [SIS/AIF-PA4, anti-inflammatory peptide amphiphile, tested dip-coated on small intestinal submucosa (SIS) scaffold]
MPO+ neutrophil levels, in words (MPO+ neutrophils): significantly lower | blood vessel formation, in words [1]: greater numbers of vessels/mm2 | collagen levels, in words [2]: lower mean collagen levels | CD68+ macrophage levels, in words (CD68+ macrophages): significantly lower

C16-VVVAAAEEEKVLDPVKG (SEQ ID NO:3) ({C16 alkyl}-VVVAAAEEEKVLDPVKG-NH2) [SIS/AIF-PA3, anti-inflammatory peptide amphiphile, tested dip-coated on small intestinal submucosa (SIS) scaffold]
blood vessel formation, in words [1]: greater numbers of vessels/mm2 | collagen levels, in words [2]: lower mean collagen levels | CD68+ macrophage levels, in words (CD68+ macrophages): comparable macrophage levels to SIS/AIF-PA1; also recorded: significantly lower
